Test results taken from ChEMBL document CHEMBL1141448, “Curcumin induces high levels of topoisomerase I- and II-DNA complexes in K562 leukemia cells” (J Nat Prod, 2007).
The source made the active and inactive calls. No cut-off for these calls is given here.

How the values were obtained:
K562 [1] = assay: Cytotoxicity against human K562 cells after 5 days by XTT assay; type: functional, cell-based; conditions: K562, 120 h
[2] = molecular target: T1, DNA topoisomerase 1 (Homo sapiens) (UniProt P11387); assay: Binding affinity to topoisomerase 1 in human K562 cells assessed as stability of topoisomerase 1-DNA complex at 70 uM after 48 hrs by TARDIS assay; type: cell-based
T1 sequence (whole entry): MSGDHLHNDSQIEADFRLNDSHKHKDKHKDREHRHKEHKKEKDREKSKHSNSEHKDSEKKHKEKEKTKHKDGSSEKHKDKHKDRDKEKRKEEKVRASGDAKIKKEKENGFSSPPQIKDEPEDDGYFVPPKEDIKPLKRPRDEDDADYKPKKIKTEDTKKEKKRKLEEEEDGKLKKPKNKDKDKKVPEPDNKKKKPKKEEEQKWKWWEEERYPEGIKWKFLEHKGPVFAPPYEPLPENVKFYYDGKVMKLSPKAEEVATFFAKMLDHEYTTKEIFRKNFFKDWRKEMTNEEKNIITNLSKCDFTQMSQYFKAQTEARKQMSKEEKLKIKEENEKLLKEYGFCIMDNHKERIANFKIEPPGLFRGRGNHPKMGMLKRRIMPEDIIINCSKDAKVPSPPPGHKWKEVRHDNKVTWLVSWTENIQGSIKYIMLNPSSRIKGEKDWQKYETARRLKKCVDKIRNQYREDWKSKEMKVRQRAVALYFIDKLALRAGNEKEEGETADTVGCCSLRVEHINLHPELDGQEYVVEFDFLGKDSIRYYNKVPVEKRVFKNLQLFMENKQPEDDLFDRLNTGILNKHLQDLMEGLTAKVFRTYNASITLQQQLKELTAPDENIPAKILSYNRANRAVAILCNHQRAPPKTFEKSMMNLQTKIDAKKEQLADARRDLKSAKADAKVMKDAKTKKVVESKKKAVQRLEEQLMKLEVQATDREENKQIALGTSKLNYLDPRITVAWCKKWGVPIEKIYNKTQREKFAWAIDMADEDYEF

K562 [3] = assay: Binding affinity to topoisomerase 2 in human K562 cells assessed as stability of topoisomerase 2-DNA complex at 70 uM after 48 hrs by TARDIS assay; type: cell-based
[4] = molecular target: T1, DNA topoisomerase 1 (Homo sapiens); assay: Reversal of drug-induced topoisomerase 1-DNA complex in presence of N-acetyl cysteine at 70 uM after 24 hrs
[5] = Reversal of drug-induced topoisomerase 2-DNA complex in presence of N-acetyl cysteine at 70 uM after 24 hrs
K562 [6] = assay: Binding affinity to topoisomerase 2 in human K562 cells assessed as increase in etoposide-induced topoisomerase 2-DNA complex at 20-70 uM after 24 hrs by TARDIS assay; type: cell-based
K562 [7] = assay: Binding affinity to topoisomerase 2 in human K562 cells assessed as increase in […]-induced topoisomerase 2-DNA complex at 20-70 uM after 24 hrs by TARDIS assay; type: cell-based

SMILES	IC50 (K562 [1])	other results
COc1cc(NS(C)(=O)=O)ccc1Nc1c2ccccc2nc2ccccc12 [AMSACRINE]	0.023 µM	
CC[C@@]1(O)C(=O)OCc2c1cc1n(c2=O)Cc2cc3ccccc3nc2-1 [CAMPTOTHECIN]	0.04 µM	
COc1cc(/C=C/C(=O)CC(=O)/C=C/c2ccc(O)c(OC)c2)ccc1O [CURCUMIN]	6.81 µM	Activity [2]: Active; Activity (K562 [3]): Active; Activity [4]: Active; Activity [5]: Active; Activity (K562 [6]): Active; Activity (K562 [7]): Active
O=C(CC(=O)c1ccccc1)c1ccccc1 [DIBENZOYLMETHANE]	30.9 µM	
COc1cc([C@@H]2c3cc4c(cc3[C@@H](O[C@@H]3O[C@@H]5CO[C@@H](C)O[C@H]5[C@H](O)[C@H]3O)[C@H]3COC(=O)[C@H]23)OCO4)cc(OC)c1O [ETOPOSIDE]	0.32 µM	
COc1cc(/C=C/C(=O)O)ccc1O [FERULATE]	> 1000 µM	
CC(=O)[C@]1(O)Cc2c(O)c3c(c(O)c2[C@@H](O[C@H]2C[C@H](N)[C@H](O)[C@H](C)O2)C1)C(=O)c1ccccc1C3=O [IDARUBICIN]	0.012 µM	
O=C1c2c(O)ccc(O)c2C(=O)c2c(NCCNCCO)ccc(NCCNCCO)c21 [MITOXANTRONE]	0.0026 µM	
